For 34 molecules, IC50 results are on record in patent publication US20070225344A1, “Sulfonamide derivatives to treat infection with hepatitis C virus” (priority 2006, published 2007).

In general, IC50 refers to the concentration at which inhibition is half-maximal.

Each structure is given as a SMILES string.

The target of this assay is T1, HCV RdRp NS5B d21BK (BK strain, 1b subtype) (Hepatitis C virus genotype 1b, UniProt P26663).
T1 construct: NS5B from the BK strain (1b subtype) is expressed in E. coli as a protein in which the 21 C-terminal amino acids are replaced; made in house; host or cells: E. coli
T1 sequence (P26663 2420-2997, looked up, natural form): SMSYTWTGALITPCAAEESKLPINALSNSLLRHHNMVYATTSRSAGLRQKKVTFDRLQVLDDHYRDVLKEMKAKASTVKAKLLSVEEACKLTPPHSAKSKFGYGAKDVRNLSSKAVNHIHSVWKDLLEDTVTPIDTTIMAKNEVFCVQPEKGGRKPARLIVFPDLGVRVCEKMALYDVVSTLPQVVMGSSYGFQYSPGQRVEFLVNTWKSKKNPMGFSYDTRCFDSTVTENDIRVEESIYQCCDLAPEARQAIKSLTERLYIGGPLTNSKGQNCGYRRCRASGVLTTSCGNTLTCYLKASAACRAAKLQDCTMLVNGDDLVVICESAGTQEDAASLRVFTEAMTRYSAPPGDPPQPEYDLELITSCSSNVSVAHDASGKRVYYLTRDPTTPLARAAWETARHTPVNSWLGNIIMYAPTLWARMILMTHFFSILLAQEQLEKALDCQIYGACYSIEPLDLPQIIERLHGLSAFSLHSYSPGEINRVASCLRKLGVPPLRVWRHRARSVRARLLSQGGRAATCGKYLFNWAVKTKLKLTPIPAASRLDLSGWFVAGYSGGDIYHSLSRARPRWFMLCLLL
Nature of the assay: HCV polymerase (NS5B) RNA-dependent RNA polymerase inhibition, 33P-GTP filter assay. Type of assay: biochemical. Conditions: in vitro; NS5B BK strain (1b subtype), 24 nM enzyme, 2 h at room temperature; read-out: HCV Polymerase Median IC50. The source says:
The ability of the compounds of the present invention to inhibit hepatitis C polymerase was established by the following experimental procedure:
NS5B from the BK strain (1b subtype) is expressed in E. coli as a protein in which the 21 C-terminal amino acids are replaced with a short linker and a hexahistidine tag (GSHHHHHH). The purified protein is mixed with radioactive nucleotides and allowed to replicate a heteropolymeric RNA substrate, primed by an endogenous short hairpin, resulting in an approximately 760 nt product. The radioactive product is captured on a filter and quantitated after removal of the unincorporated nucleotides.
(1) Compounds 10 μl at 10 μg/ml in 15% DMSO
Add 20 μl enzyme mix into each well of the assay plate. Incubate compound and enzyme at room temperature for 15 minutes.
(3) Template Mix—Prepare Ahead.
Spin down a tube of RNA (5 μg/tube stored in 75% ethanol and 0.3 M sodium acetate) in a microcentrifuge for 20 min. at 4° C. One tube is enough for 1 to 1½ plates. Remove as much ethanol from the tube as possible by inverting the tube. Be gentle, pellet RNA may not adhere to the tube. Vacuum dry the RNA. Resuspend the RNA by adding 1 ml of DEPC water, close the cap of the tube tightly. To dissolve RNA, incubate RNA solution on ice for ˜60 min. and gently vortex. Spin briefly to ensure all RNA solution is down to the bottom of the tube before opening cap. Gently transfer RNA solution into a 5 ml or larger tube. Add another 3 ml of DEPC water (total 4 ml of volume).
Add the following volumes of reagents.
Add 20 μl template mix per reaction (i.e. 20 ng of POF per reaction or ˜3 nM)
(4) Incubate reaction at room temperature (22-25° C.) for 2 hours.
(5) Stop reaction by adding 50 μl of 170 mM EDTA.
Final concentration of EDTA is 85 mM.
(6) Prewet filters of Millipore Multiscreen filter plate by adding 200 μl of 0.5 M sodium phosphate buffer, pH 7.0 into each well. Let stand at room temperature for 2-3 min.
(7) Place the Multiscreen filter plate onto a Millipore Manifold and turn on vacuum to allow buffer to flow through. Turn off vacuum. Transfer 80 μl of the reaction product into each well of the filter plate. Let stand for 2-3 min. Turn on vacuum to filter reaction product.
(8) Turn off vacuum. Add 200 μl of 0.5 M sodium phosphate buffer, pH 7.0 into each well to wash filter. Turn on vacuum.
Repeat step (8) three more times.
(9) Remove polypropylene bottom. Spot dry filter at the bottom with paper towel. Air dry filter plate on a bench for 1 hr. Add 40 μl Super Mix scintillant. Seal top of the plate with a tape. Place plate into a Packard carrier or MicroBeta carrier.
(10) Count plate using a Packard Topcount or MicroBeta counter. Program 10 for ^33P in Top count or ^33P program in micro-beta.
Percent inhibition is calculated after background subtraction as a percent reduction of activity relative to the positive control (average value of the plate excluding the negative controls).
On to `Cc1cc(N)c(S(=O)(=O)N2CCC[C@H]2C(=O)O)cc1Cl` [Example 20, 1-[(2-amino-5-chloro-4-methylphenyl)sulfonyl]-L-proline], for which the IC50 worked out at 5.95 µM.

On to `O=S(=O)(c1cc(Cl)cc(Cl)c1O)N1CCC[C@H]1CO` [Example 21, 2,4-dichloro-6-{[(2S)-2-(hydroxymethyl)pyrrolidin-1-yl]sulfonyl}phenol], for which the IC50 stood at 6.1 µM.

Regarding `O=C(O)[C@H]1CCCN1S(=O)(=O)c1cc(Br)cc(Cl)c1O` [Example 22, 1-[(5-bromo-3-chloro-2-hydroxyphenyl)sulfonyl]-D-proline], the IC50 worked out at 4.81 µM.

Turning to `O=S(=O)(c1cc(Cl)cc(Cl)c1O)N1CCCC1` [Example 23, 2,4-dichloro-6-(pyrrolidin-1-ylsulfonyl)phenol], the IC50 worked out at 4.85 µM.

With `Cc1cc(S(=O)(=O)N2C[C@@H](O)C[C@@H]2C(=O)O)c(N)cc1Cl` [Example 24, (4S)-1-[(2-amino-4-chloro-5-methylphenyl)sulfonyl]-4-hydroxy-D-proline], the IC50 came to 5.1 µM.

For `Cc1cc(N)c(S(=O)(=O)N2C[C@H](O)C[C@H]2C(=O)O)cc1Cl` [Example 25, (4R)1-[(2-amino-5-chloro-4-methylphenyl)sulfonyl]-4-hydroxy-L-proline], the IC50 worked out at 7.65 µM.

For `Cc1cc(NC(=O)c2cccs2)c(S(=O)(=O)N2CCC[C@H]2C(=O)O)cc1Cl` [Example 26, 1-({5-chloro-4-methyl-2-[(2-thienylcarbonyl)amino]phenyl}sulfonyl)-L-proline], the IC50 was 6.87 µM.

On to `O=C(O)[C@H]1CCCN1S(=O)(=O)c1cc(Br)cc(Br)c1O` [Example 27, 1-[(3,5-dibromo-2-hydroxyphenyl)sulfonyl]-D-proline], for which the IC50 is 7 µM.

Regarding `Cc1cc(S(=O)(=O)N2C[C@H](O)C[C@H]2C(=O)O)c(N)cc1Cl` [Example 28, (4R)-1-[(2-amino-4-chloro-5-methylphenyl)sulfonyl]-4-hydroxy-L-proline], the IC50 amounted to 10 µM.

Take `CCC(=O)[C@@H]1CCCN1S(=O)(=O)c1cc(Cl)cc(Cl)c1O` [Example 29, 1-{(2S)-1-[(3,5-dichloro-2-hydroxyphenyl)sulfonyl]pyrrolidin-2-yl}propan-1-one]: the IC50 was 7.29 µM.

`O=C(c1ccccc1)[C@@H]1CCCN1S(=O)(=O)c1cc(Cl)cc(Cl)c1O` [Example 30, {(2S)-1-[(3,5-dichloro-2-hydroxyphenyl)sulfonyl]pyrrolidin-2-yl}(phenyl)methanone]: the IC50 amounted to 7.52 µM.

Turning to `O=C(O)[C@H]1CCCN1S(=O)(=O)c1cc(Cl)cc(Cl)c1O` [Example 31, 1-[(3,5-dichloro-2-hydroxyphenyl)sulfonyl]-D-proline], the IC50 is 6.45 µM.

Turning to `O=C(O)[C@@H]1CCCN1S(=O)(=O)c1c(Cl)cc(Cl)cc1Cl` [Example 32, 1-[(2,4,6-trichlorophenyl)sulfonyl]-L-proline], the IC50 was 9.6 µM.

As to `Cc1cc(NC(=O)C2CC2)c(S(=O)(=O)N2CCC[C@H]2C(=O)O)cc1Cl` [Example 33, 1-({5-chloro-2-[(cyclopropylcarbonyl)amino]-4-methylphenyl}sulfonyl)-L-proline], the IC50 turned out to be 8.68 µM.

Take `Cc1cc(NC(=O)c2ccccc2)c(S(=O)(=O)N2CCC[C@H]2C(=O)O)cc1Cl` [Example 34, 1-{[2-(benzoylamino)-5-chloro-4-methylphenyl]sulfonyl}-L-proline]: the IC50 came out at 10.1 µM.

With `Cc1ccc(S(=O)(=O)N2CCC[C@H]2C(=O)O)cc1Cl` [Example 35, 1-[(3-chloro-4-methylphenyl)sulfonyl]-L-proline], the IC50 is 10.2 µM.

Turning to `O=C(O)[C@@H]1CCCN1S(=O)(=O)c1cc(Cl)c(Cl)cc1Cl` [Example 36, 1-[(2,4,5-trichlorophenyl)sulfonyl]-L-proline], the IC50 turned out to be 21.9 µM.

On to `O=C(O)[C@@H]1CCCCN1S(=O)(=O)c1cc(Cl)c(Cl)c(Cl)c1O` [Example 37, (2S)-1-[(3,4,5-trichloro-2-hydroxyphenyl)sulfonyl]piperidine-2-carboxylic acid], for which the 50% inhibitory concentration (IC50) worked out at 0.08 µM.

Turning to `O=C(O)[C@H]1CCCCN1S(=O)(=O)c1cc(Cl)c(Cl)c(Cl)c1O` [Example 38, (2R)-1-[(3,4,5-trichloro-2-hydroxyphenyl)sulfonyl]piperidine-2-carboxylic acid], the IC50 was determined as 0.38 µM.

For the molecule `O=C(O)[C@@H]1CCCCN1S(=O)(=O)c1cc(Cl)cc(Br)c1O` [Example 39, (2S)-1-[(3-bromo-5-chloro-2-hydroxyphenyl)sulfonyl]piperidine-2-carboxylic acid], the IC50 amounted to 0.45 µM.

`O=C(O)[C@H]1CCCCN1S(=O)(=O)c1cc(Cl)cc(Br)c1O` [Example 40, (2R)-1-[(3-bromo-5-chloro-2-hydroxyphenyl)sulfonyl]piperidine-2-carboxylic acid]: the IC50 was determined as 1.16 µM.

`O=C(O)[C@@H]1CCCCN1S(=O)(=O)c1cc(F)cc(Cl)c1O` [Example 41, (2S)-1-[(3-chloro-5-fluoro-2-hydroxyphenyl)sulfonyl]piperidine-2-carboxylic acid]: the IC50 was determined as 1.89 µM.

On to `O=C(O)[C@H]1CCCCN1S(=O)(=O)c1cc(Cl)cc(Cl)c1O` [Example 42, (2R)-1-[(3,5-dichloro-2-hydroxyphenyl)sulfonyl]piperidine-2-carboxylic acid], for which the concentration for half-maximal inhibition (IC50) stood at 2.01 µM.

With `O=C(O)[C@@H]1CCCCN1S(=O)(=O)c1cc(Cl)cc(Cl)c1O` [Example 43, (2S)-1-[(3,5-dichloro-2-hydroxyphenyl)sulfonyl]piperidine-2-carboxylic acid], the IC50 was 7.1 µM.

As for `Cc1cc(N)c(S(=O)(=O)N2CCCC[C@@H]2C(=O)O)cc1Cl` [Example 44, (2R)-1-[(2-amino-5-chloro-4-methylphenyl)sulfonyl]piperidine-2-carboxylic acid], the IC50 was determined as 7.9 µM.

`O=C(O)[C@@H]1CSCN1S(=O)(=O)c1cc(Cl)c(Cl)c(Cl)c1O` [Example 45, (4R)-3-[(3,4,5-trichloro-2-hydroxyphenyl)sulfonyl]-1,3-thiazolidine-4-carboxylic acid]: the IC50 came out at 0.05 µM.

In the case of `O=C(O)[C@H]1CSCN1S(=O)(=O)c1cc(Cl)c(Cl)c(Cl)c1O` [Example 46, (4S)-3-[(3,4,5-trichloro-2-hydroxyphenyl)sulfonyl]-1,3-thiazolidine-4-carboxylic acid], the IC50 came to 0.26 µM.

Regarding `O=C(O)[C@@H]1CSCN1S(=O)(=O)c1cc(Cl)cc(Cl)c1O` [Example 47, (4R)-3-[(3,5-dichloro-2-hydroxyphenyl)sulfonyl]-1,3-thiazolidine-4-carboxylic acid], the IC50 was determined as 0.24 µM.

In the case of `O=C(O)[C@@H]1CSCN1S(=O)(=O)c1cc(Br)cc(Br)c1O` [Example 48, (4R)-3-[(3,5-dibromo-2-hydroxyphenyl)sulfonyl]-1,3-thiazolidine-4-carboxylic acid], the IC50 is 0.46 µM.

Regarding `O=C(O)[C@@H]1CSCN1S(=O)(=O)c1cc(F)cc(Cl)c1O` [Example 49, (4R)-3-[(3-chloro-5-fluoro-2-hydroxyphenyl)sulfonyl]-1,3-thiazolidine-4-carboxylic acid], the IC50 worked out at 2.13 µM.

In the case of `O=C(O)[C@H]1CSCN1S(=O)(=O)c1cc(Cl)cc(Br)c1O` [Example 50, (4S)-3-[(3-bromo-5-chloro-2-hydroxyphenyl)sulfonyl]-1,3-thiazolidine-4-carboxylic acid], the IC50 turned out to be 0.87 µM.

For the molecule `O=C(O)[C@H]1CSCN1S(=O)(=O)c1cc(Cl)cc(Cl)c1O` [Example 51, (4S)-3-[(3,5-dichloro-2-hydroxyphenyl)sulfonyl]-1,3-thiazolidine-4-carboxylic acid], the IC50 worked out at 1.71 µM.

`O=S(=O)(c1cc(Cl)cc(Cl)c1O)N1CCSC1` [Example 52, 2,4-dichloro-6-(1,3-thiazolidin-3-ylsulfonyl)phenol]: the IC50 was 2.35 µM.

`Cc1cc(N)c(S(=O)(=O)N2CSC[C@@H]2C(=O)O)cc1Cl` [Example 53, (4S)-3-[(2-amino-5-chloro-4-methylphenyl)sulfonyl]-1,3-thiazolidine-4-carboxylic acid]: the IC50 came to 3.05 µM.
